Consider 15 molecules from US20240400579A1, “SPIROCYCLIC MODULATORS OF CHOLESTEROL BIOSYNTHESIS AND THEIR USE FOR PROMOTING REMYELINATION” (GENENTECH, INC., priority 2021, published 2024).

The term EC50 denotes the midpoint of the concentration-response curve. Broadly, the Ki is the dissociation constant of the complex between target and ligand, obtained from inhibition or displacement.

Like-named read-outs stand apart in the source and are kept apart here.

In one assay the test system is EpiSC-derived OPCs. As to the kind of experiment: In vitro phenotypic screening of OPCs, MBP high-content imaging. The following applies: percentage of MBP+ oligodendrocytes, 3 days, 0.5 nM to 1000 nM, read-out: mOPC EC50. It counts as cell-based, mouse. As to the method:
(§1) To assess effects of treatments on OPCs, all treatments were assayed in two or more independent platings of epiblast stem cell-derived OPCs (EpiSC). EpiSC-derived OPCs were obtained using in vitro differentiation protocols and culture conditions described previously (Najm et al, 2011, Nature Methods). OPCs were expanded and frozen down in aliquots. OPCs were thawed into growth conditions for at least one passage before use in further assays.
EpiSC-derived OPCs were grown and expanded in poly-L-ornithine (PO) and laminin-coated flasks in N2B27 media (DMEM/F12 (Gibco), N2-MAX (R&D Systems), B-27 (ThermoFisher), and GlutaMax (Gibco)) supplemented with FGF2 ([…], R&D systems, 233-FB-025) and PDGF-AA ([…], R&D systems, 233-AA-050) before harvesting for experiments. The cells were seeded onto poly-L-ornithine or poly-D-lysine coated CellCarrier Ultra plates (PerkinElmer) coated with laminin (Sigma, L2020) at a density of 150,000/cm^2 in N2B27 media without growth factors. For dose-response testing, a 1000× compound stock in dimethyl sulphoxide (DMSO) was added to assay plates, resulting in 8-point dose curves with final concentrations between 1000 nM and 0.5 nM. Positive controls and DMSO vehicle controls were included in each assay plate. Cells were incubated under standard conditions (37° C., 5% CO2) for 3 days and fixed with 4% paraformaldehyde (PFA) in phosphate buffered saline (PBS) for 20 min. Fixed plates were washed with PBS, permeabilized with 0.1% Triton X-100, and blocked with 10% donkey serum (v/v) in PBS for 40 min. Then, cells were labelled with MBP antibodies (Abcam, ab7349; 1:200) for 2 h at room temperature, washed with PBS, and stained with Alexa Fluor conjugated secondary antibodies (1:500) for 45 min. Nuclei were visualized by DAPI staining (Sigma; 1 μg/ml), followed by further PBS washes.
Cells and cell culture plates were imaged on the Operetta High Content Imaging and Analysis system (PerkinElmer). Analysis (PerkinElmer Harmony and Columbus software) began by identifying intact nuclei stained by DAPI. The peri-nuclear region of each cell was then cross-referenced with the mature myelin protein (MBP) stain to identify oligodendrocyte nuclei, and from this the percentage of oligodendrocytes was calculated. EC50 values were calculated using The Levenberg-Marquardt algorithm to fit a Hill equation to dose-response data (0.5 nM to 1000 nM).

The test system of assay [1] is zymostenol accumulation in EpiSC-derived OPCs (EBP). Kind of assay: GC/MS-based sterol profiling, zymostenol accumulation. It counts as cell-based, mouse. The following applies: 8 doses from 0.15 nM to 333 nM, read-out: mZymo GCMS EC50. As to the method: as §1
Sterols were monitored using a modified Folch wash protocol (Hubler et al, 2018, Nature). EpiSC-derived OPCs were plated at 100,000 cells per well in PO— and laminin-coated 96-well plates in N2B27 media without growth factors. After 24 hours, cells were rinsed with saline and plates were frozen. Cholesterol-d7 standard was then added to each well before drying under nitrogen stream and derivatization with 55 μl of bis(trimethylsilyl) trifluoroacetamide. After derivatization, 2 μl were analyzed by gas chromatography/mass spectrometry using an Agilent 5973 Network Mass Selective Detector equipped with a 6890 gas chromatograph system and a HP-5MS capillary column (30 m x 0.25 mm×[…]). Samples were analyzed in full scan mode using electron impact ionization; ion fragment peaks were integrated to calculate sterol abundance, and quantitation was relative to cholesterol-d7. The following ion fragments were used to quantitate each metabolite: cholesterol-d7 (465), FF-Mas (482), cholesterol (368), zymostenol (458), zymosterol (456), Desmosterol (456, 343), 7-dehydrocholesterol (456, 325), lanosterol (393), lathosterol (458), 14-dehydrozymostenol (456, 351). […] All standards were obtained from Avanti Polar Lipids unless otherwise indicated. Calibration curves were generated by injecting varying concentrations of sterol standards and maintaining a fixed amount of cholesterol-D7. For normalized zymostenol accumulation results, the total amount of zymostenol measured after drug treatment was divided by the total amount of zymostenol accumulated after 24 hr treatment with 100 nM positive control reference.

Assay [2] deals with human emopamil binding protein and human 7-dehydrocholesterol reductase co-expressing cell membrane (Homo sapiens (Human), UniProt Q15125). As to the kind of experiment: hEBP-DHCR7 radioligand filtration binding assay with [3H]-Compound 118A*. The following applies: radioligand [3H]-Compound 118A*; HEK293 membrane co-expressing hEBP and DHCR7. As for the experimental part:
Membrane Preparation: human emopamil binding protein and human 7-dehydrocholesterol reductase co-expressing cells were generated by transient transfecting host human embryonic kidney (HEK) 293 cells with 2 DNA constructs containing each protein's coding sequence. Cells were suspension cultured at 37° C. with 5% CO2 in […] 293 Expression Medium (Thermofisher). Whole cell membrane was prepared by harvesting the cell pellet, adding cold membrane buffer (50 mM Tris, pH7.5, 1× Roche COMPLETE EDTA-free protease inhibitor cocktail) 10 times volume of the cell pellets weight, lysing cell pellet on ice by using Dounce homogenizer, spinning at 200 g 4° C. for 15 min, collecting supernatant and spinning again at 25000 g 4° C. for 50 min, transferring pellet to Dounce homogenizer, re-suspending pellet by homogenizing in membrane buffer on ice to reach ˜25 mg/mL, then keeping whole cell membrane aliquots at −80° C.
Compounds were prepared in a 96-well U bottom plate using an Echo550 machine and 10 mM compound DMSO stock solution, followed by an 8-dose 5-fold serial dilutions protocol with final testing compound concentration ranging from 0.06 to 5000 nM, with DMSO back fill to 100 nL/well and n=2. […] The UniFilter-96 GF/B plates were pre-treated by adding 50 μl/well of 0.3% (v/v) PEI to UniFilter-96 GF/B plates. The plates were sealed and incubated at 4° C. for 3 hrs. Then, the plates were washed with ice-cold assay buffer 3 times. The radioligand binding assay was prepared by adding assay buffer diluted hEBP-DHCR7 membrane at 66.7 μg/ml x 150 μl/well into the 96-well compound plate to reach 10 μg membrane per well. Then, the assay buffer diluted [3H]-Compound 118A* was added at 25 nM×50 μl/well. Following this, the plate was centrifuged at 1000 rpm for 30 secs. The plate was then sealed and agitated at 600 rpm at 22° C. for 5 min, and then incubated at 22° C. for 3 hrs. The incubation was stopped by transferring the binding solution to the pre-treated UniFilter-96 GF/B plate, vacuum filtrated, and then washed four times with ice-cold assay buffer. Following this, the plates were dried at 37° C. for 45 min. The plates were then sealed at the bottom. 40 μl/well of scintillation cocktail was added to the plates. A MicroBeta2 microplate counter was then used to read the plate and analyze the data. For reference and test compounds, the results are expressed as % Inhibition, using the normalization equation: N=100-100×(U−C2)/(C1−C2), where U is the unknown value, C1 is the average of high controls, and C2 is the average value of low controls. The IC50 was determined by fitting percentage of inhibition as a function of compound concentrations with Hill equation using XLfit. Results are expressed as hEBP-DHCR7 Ki (uM) in Table 4. Ki was calculated as described above.

Sequence of human emopamil binding protein and human 7-dehydrocholesterol reductase co-expressing cell membrane (Q15125 whole entry): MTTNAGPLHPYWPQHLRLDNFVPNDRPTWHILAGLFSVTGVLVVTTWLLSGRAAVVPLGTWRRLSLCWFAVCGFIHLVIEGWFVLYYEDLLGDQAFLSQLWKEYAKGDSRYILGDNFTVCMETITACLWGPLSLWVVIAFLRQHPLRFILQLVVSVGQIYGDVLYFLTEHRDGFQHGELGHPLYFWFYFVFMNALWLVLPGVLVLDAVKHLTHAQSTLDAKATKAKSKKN

In the case of `C[C@H](Cc1ccc([C@H]2CC[C@](C)(O)CC2)c(Cl)c1)CN1CCC2(C1)CS(=O)(=O)C2` (mixture of isomers) [Compound 123A, 6-((R)-3-(3-Chloro-4-((1r,4R)-4-hydroxy-4-methylcyclohexyl)phenyl)-2-methylpropyl)-2-thia-6-azaspiro[3.4]octane 2,2-dioxide, 6-((S)-3-(3-chloro-4-((1r,4S)-4-hydroxy-4-methylcyclohexyl)phenyl)-2-methylpropyl)-2-thia-6-azaspiro[3.4]octane 2,2-dioxide], the figures for the EC50 (in the assay on EpiSC-derived OPCs; in assay [1] (24 hours)) were 0.054 µM and 0.014 µM, respectively. Affinity in assay [2] was put at a Ki of 0.0119 µM.

With `C[C@@H](Cc1ccc([C@H]2CC[C@](C)(O)CC2)c(Cl)c1)CN1CCC2(C1)CS(=O)(=O)C2` (mixture of isomers) [Compound 123B, 6-((S)-3-(3-Chloro-4-((1r,4S)-4-hydroxy-4-methylcyclohexyl)phenyl)-2-methylpropyl)-2-thia-6-azaspiro[3.4]octane 2,2-dioxide, and 6-((R)-3-(3-chloro-4-((1r,4R)-4-hydroxy-4-methylcyclohexyl)phenyl)-2-methylpropyl)-2-thia-6-azaspiro[3.4]octane 2,2-dioxide], the EC50 in the assay on EpiSC-derived OPCs stood at 0.035 µM; in assay [1] (24 hours), 0.0024 µM. The same molecule showed a Ki in assay [2] of 0.011 µM.

Regarding `CC(Cc1ccc(C2CC2(C)C)cc1)CN1CCC2(C1)CS(=O)(=O)C2` (racemic) [Compound 102], the EC50 with EpiSC-derived OPCs (Mus musculus, 72 h) was 0.02 µM; in assay [1] (Mus musculus, 24 h), 0.0025 µM. The same molecule came in with a Ki in assay [2] of 0.00831 µM.

Regarding `CCC(C)(C)c1ccc(CCC(C)N2CCC3(C2)CS(=O)(=O)C3)cc1` (racemic) [Compound 105, 6-(4-(4-(tert-Pentyl)phenyl)butan-2-yl)-2-thia-6-azaspiro[3.4]octane 2,2-dioxide], the EC50 turned out to be 0.26 µM in the assay on EpiSC-derived OPCs (Mus musculus, 72 h) and 0.066 µM in assay [1] (Mus musculus, 24 h). In addition, the inhibition constant (Ki) in assay [2] was determined as 0.0129 µM.

For `CC(Cc1ccc(C2CC2)cc1)CN1CCC2(C1)CS(=O)(=O)C2` (racemic) [Compound 108, 6-(3-(4-Cyclopropylphenyl)-2-methylpropyl)-2-thia-6-azaspiro[3.4]octane 2,2-dioxide], the EC50 with EpiSC-derived OPCs (Mus musculus, 72 h) is 0.0075 µM; in assay [1] (Mus musculus, 24 h), 0.0055 µM. This molecule registered a Ki in assay [2] of 0.00972 µM.

In the case of `CCC(C)(C)c1ccc(CC(C)CN2CCC3(CC2)CS(=O)(=O)C3)cc1` (racemic) [Compound 110, 7-(2-Methyl-3-(4-(tert-pentyl)phenyl)propyl)-2-thia-7-azaspiro[3.5]nonane 2,2-dioxide], the EC50 worked out at 0.03 µM in the assay on EpiSC-derived OPCs (Mus musculus, 72 h) and 0.022 µM in assay [1] (Mus musculus, 24 h). Also, the Ki in assay [2] was found to be 0.00844 µM.

`CC(Cc1ccc(C2(C)CC2)cc1)CN1CCC2(C1)CS(=O)(=O)C2` (racemic) [Compound 111A, 6-(2-Methyl-3-(4-(1-methylcyclopropyl)phenyl)propyl)-2-thia-6-azaspiro[3.4]octane 2,2-dioxide]: the EC50 is 0.02 µM in the assay on EpiSC-derived OPCs (Mus musculus, 72 h) and 0.0013 µM in assay [1] (Mus musculus, 24 h). Moreover, the Ki in assay [2] came out at 0.00857 µM.

With `O=S1(=O)CC2(CCN(CCOc3cnc([C@H]4CCC[C@H](C(F)(F)F)C4)nc3)CC2)C1` (relative stereo) [Compound 248A, 7-(2-((2-((trans)-3-(Trifluoromethyl)cyclohexyl)pyrimidin-5-yl)oxy)ethyl)-2-thia-7-azaspiro[3.5]nonane 2,2-dioxide], the EC50 with EpiSC-derived OPCs (Mus musculus, 72 h) amounted to 0.0948 µM; in assay [1] (Mus musculus, 24 h), 0.0244 µM. This molecule yielded a Ki in assay [2] of 0.0149 µM.

On to `O=S1(=O)CC2(CCN(CCOc3cnc([C@H]4CCC[C@@H](C(F)(F)F)C4)nc3)CC2)C1` (relative stereo) [Compound 248B, 7-(2-((2-((cis)-3-(trifluoromethyl)cyclohexyl)pyrimidin-5-yl)oxy)ethyl)-2-thia-7-azaspiro[3.5]nonane 2,2-dioxide], for which the EC50 in the assay with EpiSC-derived OPCs (Mus musculus, 72 h) was found to be 0.0741 µM; in assay [1] (Mus musculus, 24 h), 0.0256 µM. This molecule returned a Ki in assay [2] of 0.0316 µM.

Turning to `C[C@H](Cc1ccc(C2CCC2)cc1)CN1CCC2(C1)CS(=O)(=O)C2` (single isomer, unassigned) [109B*], the EC50 with EpiSC-derived OPCs (Mus musculus, 72 h) amounted to 0.00055 µM; in assay [1] (Mus musculus, 24 h), 0.0004 µM. This molecule also gave a Ki in assay [2] of 0.00654 µM.

For `C[C@@H](Cc1ccc(C2CCC2)cc1)CN1CCC2(C1)CS(=O)(=O)C2` (single isomer, unassigned) [109C*], the EC50 is 0.003 µM in the assay with EpiSC-derived OPCs (Mus musculus, 72 h) and 0.0021 µM in assay [1] (Mus musculus, 24 h). In assay [2], this molecule gave a Ki of 0.00514 µM.

Consider `C[C@H](CN1CCC2(C1)CS(=O)(=O)C2)Oc1ccc(C(F)(F)F)cc1` (single isomer, unassigned) [115A*], for which the EC50 turned out to be 0.042 µM in the assay on EpiSC-derived OPCs (Mus musculus, 72 h) and 0.0086 µM in assay [1] (Mus musculus, 24 h). In assay [2], the Ki turned out to be 0.0189 µM.

As for `C[C@@H](CN1CCC2(C1)CS(=O)(=O)C2)Oc1ccc(C(F)(F)F)cc1` (single isomer, unassigned) [115B*], the EC50 stood at 0.029 µM with EpiSC-derived OPCs (Mus musculus, 72 h) and 0.015 µM in assay [1] (Mus musculus, 24 h). This molecule yielded a Ki in assay [2] of 0.0135 µM.

As for `C[C@H](Cc1ccc(C2CCC(F)(F)CC2)c(Cl)c1)CN1CCC2(C1)CS(=O)(=O)C2` (single isomer, unassigned) [117B*], the EC50 is 0.00046 µM in the assay with EpiSC-derived OPCs (Mus musculus, 72 h) and 0.00035 µM in assay [1] (Mus musculus, 24 h). Besides, the affinity in assay [2] corresponds to a Ki of 0.00986 µM.

Turning to `C[C@H](Cc1ccc(C(F)(F)F)nc1)CN1CCC2(C1)CS(=O)(=O)C2` (single isomer, unassigned) [118B*], the EC50 came out at 0.14 µM in the assay with EpiSC-derived OPCs (Mus musculus, 72 h) and 0.054 µM in assay [1] (Mus musculus, 24 h). This molecule showed a Ki in assay [2] of 0.0505 µM.
